Results reported in patent publication US4210749A, “Substituted 1,2,4,5-tetrahydro-3H,3 benzazepines” (priority 1979, dated 1980).
Where a name gives a salt, the structure may show the parent alone.

Legend:
sciatic block = test: Local anesthetic sciatic block, Table IV; assay type: in vivo; settings: 1%
[1] = Narcotic antagonism I.P., Table IV; assay type: in vivo
[2] = Mouse tail stimulation (MST), Table IV; assay type: in vivo; parameters: unit not given here; settings: S.C.
[3] = I.P. symptomatology (highest tolerated dose, median lethal dose), Table IV; assay type: in vivo; settings: in vivo, ip; for MTD: read-out: HTD (highest tolerated dose)
[4] = Analgesic activity, hot plate method; assay type: in vivo
in vivo [5] = test: in vivo
in vivo [6] = test: in vivo; remark: listed apart in the source
[7] = Analgesic activity in hot plate and writhing tests, overall comparison; settings: for Analgesic efficacy by route of administration: oral vs parenteral
[8] = Analgesic activity, writhing method; assay type: in vivo
[9] = tested on: isolated segments of guinea pig ileum (acetylcholine); test: Anticholinergic activity: block of acetylcholine in isolated segments of guinea pig ileum
[10] = tested on: isolated segments of guinea pig ileum (histamine); test: Antihistaminic activity: block of histamine in isolated segments of guinea pig ileum
[11] = tested on: phenylbenzoquinone writhing; test: Phenylbenzoquinone (PBQ) writhing analgesia, Table IV; assay type: in vivo; settings: sc; S.C.; marked * Median effective dose
morphine analgesia = assay type: in vivo, rat; settings: for Narcotic antagonist potency relative to pentazocine: Table II

| Structure (SMILES) | Local Anesthetic Sciatic Block (sciatic block) | Narcotic Antagonism [1] | MST (mouse tail stimulation) [2] | LD50 [3] [mg/kg] | MTD [3] [mg/kg] | ED50 ([4]; ip) [mg/kg] | ED50 ([4]; po) [mg/kg] | ED50 ([8]; po) [mg/kg] | Conc. for 50% block of Acetylcholine [9] [μg/20 ml] | Conc. for 50% block of Histamine [10] [μg/20 ml] | further results |
| --- | --- | --- | --- | --- | --- | --- | --- | --- | --- | --- | --- |
| CC(=O)Oc1ccc2c(c1)CCN(CC=C(C)C)CC2 [Example 5, 7-Acetoxy-3-(3,3-dimethylallyl)-1,2,4,5-tetrahydro-3H,3-benzazepine hydrochloride] | Positive | Positive | > 30 | ~200 | ~10 |  |  |  |  |  |  |
| CC(C)=CCN1CCc2ccc(O)cc2CC1C (stereo not shown) [Example 34, 3-(3,3-Dimethylallyl)-8-hydroxy-2-methyl-1,2,4,5-tetrahydro-3H,3-benzazepine hydrochloride] | Positive | Positive | > 40 | 60 | 10 |  |  |  |  |  |  |
| COc1ccc2c(c1)CCN(CCN1CCN(c3ccccc3)CC1)CC2 [Example 31, 7-Methoxy-3-[2-(4-phenyl-1-piperazinyl)ethyl]-1,2,4,5-tetrahydro-3H,3-benzazepine] | Positive | Negative | 20 | 80 | 30 | ~8 | ~80 | > 100 |  |  | LD50 (in vivo [5]; ip): ~80 mg/kg; LD50 (in vivo [5]; po): ~300 mg/kg; NOAEL (in vivo [6]; ip): 32 mg/kg; NOAEL (in vivo [6]; po): 100 mg/kg; Analgesic activity ranking [7]: most active compounds; Separation between effective dose and toxic or lethal doses [7]: greatest separation between effective dose and toxic or lethal doses |
| CC(C)=CCN1CCC2(C)c3cc(O)ccc3CC1C2C (stereo not shown) [Pentazocine, reference compound] |  |  |  |  |  | 100 | > 316 | 70 |  |  | LD50 (in vivo [5]; ip): > 600 mg/kg; LD50 (in vivo [5]; po): ~800 mg/kg; NOAEL (in vivo [6]; ip): 316 mg/kg; NOAEL (in vivo [6]; po): 316 mg/kg |
| CN1[C@@H]2CC[C@H]1C[C@@H](OC(=O)C(CO)c1ccccc1)C2 (stereo partly shown) [Atropine, reference compound] |  |  |  |  |  |  |  |  | 0.0035 | 37 |  |
| CC1Cc2cc(O)ccc2CCN1CC1CC1 (stereo not shown) [Example 41, 3-Cyclopropylmethyl-8-hydroxy-2-methyl-1,2,4,5-tetrahydro-3H,3-benzezepine hydrochloride] | Positive | Negative | > 30 | ~60 | ~3 |  |  |  |  |  |  |
| COc1ccc2c(c1)CC(C)N(CCN1CCN(c3ccccc3)CC1)CC2 (stereo not shown) [Example 40, 8-Methoxy-2-methyl-3-[2-(4-phenyl-1-piperazinyl)-ethyl]-1,2,4,5-tetrahydro-3H,3-benzazepine dihydrochloride] | Positive | Negative |  | > 100 | 30 |  |  |  |  |  | ED50 [11]: > 30 mg/kg |
| C=CCN1CCc2ccc(OC)cc2CC1C (stereo not shown) [Example 38, 3-Allyl-8-methoxy-2-methyl-1,2,4,5-tetrahydro-3H,3-benzazepine hydrochloride] |  | Positive | > 10 | 200 | 10 |  |  |  |  |  |  |
| c1ccc2c(c1)CCN(CC1CC1)CC2 [Example 37, 3-Cyclopropylmethyl-1,2,4,5-tetrahydro-3H,3-benzazepine hydrochloride] |  | Negative | 10 | 60 | 10 | 12 | 37 | 49 | 540 | 20 | Analgesic efficacy by route of administration [7]: active by the oral route; Writhing test activity relative to pentazocine ([8]; oral route): approximately twice as active as pentazocine; ED50 ([8]; sc): > 18 mg/kg |
| COc1ccc2c(c1)CCN(C(C)Cc1ccccc1)CC2 (racemic) [Example 26, 7-Methoxy-3-(1-methyl-2-phenylethyl)-1,2,4,5-tetrahydro-3H,3-benzazepine] |  |  |  |  |  |  |  |  | 94 | 54 |  |
| COc1ccc2c(c1)CCN(CC1CC1)CC2 [Example 7, 3-Cyclopropylmethyl-7-methoxy-1,2,4,5-tetrahydro-3H,3-benzazepine] | Positive | Negative |  | 100 | 40 |  |  |  | 220 | 20 |  |
| C=CCN1CC[C@]23c4c5ccc(O)c4O[C@H]2[C@@H](O)C=C[C@H]3[C@H]1C5 [Nalorphine, reference compound] |  |  |  |  |  |  |  |  |  |  | Antagonism of Morphine Analgesia, times more active than compounds listed above (morphine analgesia; rat, in vivo, sc): 20-100 times |
| Oc1ccc2c(c1)CCN(CCc1ccccc1)CC2 [Example 25, 7-Hydroxy-3-phenethyl-1,2,4,5-tetrahydro-3H,3-benzazepine] |  |  |  |  |  | 26 | > 178 | > 178 |  |  | LD50 (in vivo [5]; po): > 1000 mg/kg; NOAEL (in vivo [6]; po): 178 mg/kg |
| C=CCN1CCc2ccc(OC)cc2CC1 [Example 14, 3-Allyl-7-methoxy-1,2,4,5-tetrahydro-3H,3-benzazepine] | Positive | Positive |  | 80 | 60 | 42 | > 178 | > 178 |  |  | LD50 (in vivo [5]; po): > 1000 mg/kg; NOAEL (in vivo [6]; po): 178 mg/kg; Narcotic antagonist potency relative to pentazocine (morphine analgesia): about equipotent to pentazocine; ED50 ([8]; sc): > 56 mg/kg |
| COc1ccc2c(c1)CCN(CC=Cc1ccccc1)CC2 [Example 28, 7-Methoxy-3-(3-phenylallyl)-1,2,4,5-tetrahydro-3H,3-benzazepine] |  | Positive | 10 | 60 | 20 | > 18 | 125 | 120 |  |  | Narcotic antagonist potency relative to pentazocine (morphine analgesia): about equipotent to pentazocine; Analgesic efficacy by route of administration [7]: active by the oral route; ED50 ([8]; sc): > 18 mg/kg |
| Oc1ccc2c(c1)CCN(CC=Cc1ccccc1)CC2 [Example 29, 7-Hydroxy-3-(3-phenylallyl)-1,2,4,5-tetrahydro-3H,3-benzazepine] |  |  |  |  |  | 230 | > 1000 | 210 |  |  | LD50 (in vivo [5]; po): > 1000 mg/kg; NOAEL (in vivo [6]; ip): 300 mg/kg; NOAEL (in vivo [6]; po): 1000 mg/kg |
| CCCN1CCc2ccc(O)cc2CC1 [Example 23, 7-Hydroxy-3-n-propyl-1,2,4,5-tetrahydro-3H,3-benzazepine] | Positive | Positive |  | 50 | 20 |  |  |  | > 1000 | 75 |  |
| COc1ccc2c(c1)CCNCC2 [Example 1, 7-Methoxy-1,2,4,5-tetrahydro-3H,3-benzazepine] | Positive | Negative | > 3 | 60 | 3 |  |  |  |  |  |  |
| CC(C)=CCN1CCc2ccc(O)cc2CC1 [Example 4, 3-(3,3-Dimethylallyl)-7-hydroxy-1,2,4,5-tetrahydro-3H,3-benzazepine] | Positive | Positive | > 56 | 96 | 30 |  |  |  | 120 | 76 | Narcotic antagonist potency relative to pentazocine (morphine analgesia): more potent antagonist than pentazocine |
| COc1ccc2c(c1)CCN(C)CC2 [Example 18, 7-Methoxy-3-methyl-1,2,4,5-tetrahydro-3H,3-benzazepine] |  | Negative |  | 80 | 25 | 20 | 140 | > 180 |  |  | Analgesic efficacy by route of administration [7]: active by the oral route; ED50 ([8]; sc): > 32 mg/kg |
| COc1ccc2c(c1)CC(C)N(CCc1ccccc1)CC2 (stereo not shown) [Example 36, 8-Methoxy-2-methyl-3-phenethyl-1,2,4,5-tetrahydro-3H,3-benzazepine hydrochloride] | Insoluble | Negative | 10 | 60 | 10 |  |  |  |  |  |  |
| COc1ccc2c(c1)CCN(CCc1ccccc1)CC2 [Example 24, 7-Methoxy-3-phenethyl-1,2,4,5-tetrahydro-3H,3-benzazepine] | Positive |  |  | > 200 | > 50 | 12 | > 178 | > 178 | 74 | 10 | LD50 (in vivo [5]; po): > 1000 mg/kg; NOAEL (in vivo [6]; po): 178 mg/kg; Narcotic antagonist potency relative to pentazocine (morphine analgesia): about equipotent to pentazocine; Analgesic activity ranking [7]: most active compounds; Separation between effective dose and toxic or lethal doses [7]: greatest separation between effective dose and toxic or lethal doses; ED50 ([8]; sc): ~11 mg/kg |
| COc1ccc2c(c1)CC(C)N(C)CC2 (stereo not shown) [Example 39, 8-Methoxy-2,3-dimethyl-1,2,4,5-tetrahydro-3H,3-benzazepine hydrochloride] | Positive | Negative |  | ~150 | 10 |  |  |  |  |  | ED50 [11]: > 30 mg/kg |
